According to the supplement of paper PMC11061612:

Assays:
NCI-H2452 (Mesothelioma) = experiment: combination Emax (second highest fraction inhibited in the dose matrix, 72 h); higher = more inhibition; extreme values may be limits of the assay
Summary of the method: (§1)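 Bliss excess equals the observed combination effect minus the expected value EA + EB − EA·EB, where EA and EB are the effects of each agent alone. Combination Emax is the second-highest inhibition within the matrix. Inhibition was scaled from CellTiter-Glo 2.0 luminescence, with 0 set by vehicle wells and 1 by blank wells, after 72 hours of two-drug dosing of cells plated in 1536-well plates.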

[1] = system: NCI-H2009 (Lung Adenocarcinoma); experiment: as above
Summary of the method: as §1

[2] = system: NCI-H835 (Other Solid Carcinomas); experiment: as above
Summary of the method: as §1

[3] = system: KNS-62 (Squamous Cell Lung Carcinoma); experiment: as above
Summary of the method: as §1

[4] = system: MDA-MB-175-VII (Breast Carcinoma); experiment: as above
Summary of the method: as §1

[5] = system: L-363 (Plasma Cell Myeloma); experiment: as above
Summary of the method: as §1

[6] = system: NTERA-2-cl-D1 (Other Solid Carcinomas); experiment: as above
Summary of the method: as §1

C32 (Melanoma) = experiment: as above
Summary of the method: as §1

[7] = system: NCI-H835 (Other Solid Carcinomas); experiment: Bliss excess, mean over the matrix (fraction); higher = more synergy
Summary of the method: as §1

[8] = system: SBC-5 (Small Cell Lung Carcinoma); experiment: combination Emax (second highest fraction inhibited in the dose matrix, 72 h); higher = more inhibition; extreme values may be limits of the assay
Summary of the method: as §1

[9] = system: OCI-M1 (Acute Myeloid Leukemia); experiment: as above
Summary of the method: as §1

[10] = system: ATN-1 (T-Lymphoblastic Leukemia); experiment: as above
Summary of the method: as §1

[11] = system: NCI-H2170 (Squamous Cell Lung Carcinoma); experiment: as above
Summary of the method: as §1

[12] = system: IGROV-1 (Ovarian Carcinoma); experiment: as above
Summary of the method: as §1

[13] = system: RS4-11 (B-Lymphoblastic Leukemia); experiment: as above
Summary of the method: as §1

[14] = system: Daudi (Burkitt's Lymphoma); experiment: as above
Summary of the method: as §1

Row | SMILES | combination Emax (NCI-H2452 (Mesothelioma)) | combination Emax [1] | combination Emax [2] | combination Emax [3] | combination Emax [4] | combination Emax [5] | combination Emax [6] | combination Emax (C32 (Melanoma)) | Bliss excess [7] | combination Emax [8] | combination Emax [9] | combination Emax [10] | combination Emax [11] | combination Emax [12] | combination Emax [13] | combination Emax [14]
1 | C=CCn1c(=O)c2cnc(Nc3ccc(N4CCN(C)CC4)cc3)nc2n1-c1cccc(C(C)(C)O)n1 [AZD1775] + Nc1ccn([C@@H]2O[C@H](CO)[C@@H](O)C2(F)F)c(=O)n1 [Gemcitabine] (first compound max 1 µM, partner max 0.3 µM) | 0.693 | 0.907 | 0.476 | 0.561 | 0.456 | 0.983 | 0.614 | 0.701 | -0.0789 |  |  |  |  |  |  | 
2 | CN(CCO)CC[C@H](CSc1ccccc1)Nc1ccc(S(=O)(=O)NC(=O)c2ccc(N3CCC([C@@H](O)c4ccccc4-c4ccc(Cl)cc4)CC3)cc2)cc1S(=O)(=O)C(F)(F)F [AZD4320] + CS(=O)(=O)CCNCc1ccc(-c2ccc3ncnc(Nc4ccc(OCc5cccc(F)c5)c(Cl)c4)c3c2)o1 [Lapatinib] (first compound max 1 µM, 7x7, partner max 10 µM) | 0.581 | 0.349 | 0.982 | 0.291 | 1 | 0.154 | 0.965 | 0.344 | 0.0449 |  |  |  |  |  |  | 
3 | COc1nnc2ccc(N3CCC(c4ccc(OCCN5CCN(C)C(=O)[C@H]5C)cc4)CC3)nn12 [AZD5153] + C=CCn1c(=O)c2cnc(Nc3ccc(N4CCN(C)CC4)cc3)nc2n1-c1cccc(C(C)(C)O)n1 [AZD1775] (first compound max 1 µM, partner max 1 µM) | 0.605 | 0.703 | 0.582 | 0.542 | 0.432 | 0.935 | 0.672 | 0.354 | -0.0618 | 0.846 | 0.999 | 0.98 | 0.735 | 0.838 | 0.979 | 0.753
4 | COc1nnc2ccc(N3CCC(c4ccc(OCCN5CCN(C)C(=O)[C@H]5C)cc4)CC3)nn12 [AZD5153] + CN(CC[C@H](CSC1=CC=CC=C1)NC2=C(C=C(C=C2)S(=O)(=O)NC(=O)C3=CC=C(C=C3)N4CCC(CC4)[C@H](C5=CC=CC=C5C6=CC=C(C=C6)Cl)O)S(=O)(=O)C(F)(F)F)CCO [AZD4320] (first compound max 1 µM, 7x7, partner max 1 µM) |  |  |  |  |  |  |  | 0.444 |  | 0.534 | 1 | 0.718 | 0.838 | 0.608 | 1 | 0.58
5 | Cc1c2c(nn1C)CSCc1cc(n(C)n1)CSc1cc(c3ccccc3c1)OCCCc1c(C(=O)O)n(C)c3c-2c(Cl)ccc13 [AZD5991] + CC(=O)O[C@H]1C(=O)[C@@]2(C)[C@H]([C@H](OC(=O)c3ccccc3)[C@]3(O)C[C@H](OC(=O)[C@H](O)[C@@H](NC(=O)c4ccccc4)c4ccccc4)C(C)=C1C3(C)C)[C@]1(OC(C)=O)CO[C@@H]1C[C@@H]2O [Paclitaxel] (first compound max 1 µM, 7x7, partner max 3 µM) | 0.838 | 0.715 | 0.453 | 0.6 | 0.505 | 1 | 0.614 | 0.654 | 0.0252 |  |  |  |  |  |  | 
6 | Cc1c2c(nn1C)CSCc1cc(n(C)n1)CSc1cc(c3ccccc3c1)OCCCc1c(C(=O)O)n(C)c3c-2c(Cl)ccc13 [AZD5991] + CS(=O)(=O)CCNCc1ccc(-c2ccc3ncnc(Nc4ccc(OCc5cccc(F)c5)c(Cl)c4)c3c2)o1 [Lapatinib] (first compound max 1 µM, 7x7, partner max 10 µM) | 0.414 | 0.237 | 0.332 | 0.213 | 0.973 | 0.993 | 0.487 | 0.228 | 0.019 |  |  |  |  |  |  | 
7 | C[C@@H]1COCCN1c1cc(C2([S@](C)(=N)=O)CC2)nc(-c2ccnc3[nH]ccc23)n1 [AZD6738] + C1CC(C1)(C(=O)[O-])C(=O)[O-].N.N.[Pt+2] [Carboplatin] (first compound max 10 µM, 7x7, partner max 10 µM) | 0.432 | 0.466 | 0.322 | 0.438 | 0.309 | 0.528 | 0.524 | 0.601 | -0.0529 |  |  |  |  |  |  | 
8 | C[C@@H]1COCCN1c1cc(C2([S@](C)(=N)=O)CC2)nc(-c2ccnc3[nH]ccc23)n1 [AZD6738] + Nc1ccn([C@@H]2O[C@H](CO)[C@@H](O)C2(F)F)c(=O)n1 [Gemcitabine] (first compound max 10 µM, 7x7, partner max 0.3 µM) | 0.763 | 0.789 | 0.446 | 0.665 | 0.529 | 0.941 | 0.592 | 0.703 | 0.0442 |  |  |  |  |  |  | 
9 | C[C@@H](Nc1cc(F)cc(F)c1)c1cc(C(=O)N(C)C)cc2c(=O)cc(N3CCOCC3)oc12 [AZD8186] + CC(=O)c1c(C)c2cnc(Nc3ccc(N4CCNCC4)cn3)nc2n(C2CCCC2)c1=O [Palbociclib] (first compound max 10 µM, 7x7, partner max 10 µM) | 0.417 | 0.256 | 0.802 | 0.358 | 0.456 | 0.737 | 0.343 | 0.342 | 0.0763 |  |  |  |  |  |  | 
10 | C[C@@H](Oc1cc(-c2cnn(C3CCNCC3)c2)cnc1N)c1c(Cl)ccc(F)c1Cl [Crizotinib] + CC1=C(C(=CC=C1)Cl)NC(=O)C2=CN=C(S2)NC3=CC(=NC(=N3)C)N4CCN(CC4)CCO [Dasatinib] (first compound max 10 µM, 7x7, partner max 2 µM) | 0.744 | 0.88 | 0.854 | 0.302 | 0.0779 | 0.632 | 0.956 | 0.425 | 0.0045 |  |  |  |  |  |  | 
11 | CS(=O)(=O)CCNCc1ccc(-c2ccc3ncnc(Nc4ccc(OCc5cccc(F)c5)c(Cl)c4)c3c2)o1 [Lapatinib] + Cn1cnc2c(F)c(Nc3ccc(Br)cc3Cl)c(C(=O)NOCCO)cc21 [Selumetinib] (first compound max 10 µM, 7x7, partner max 10 µM) | 0.466 | 0.53 | 0.257 | 0.626 | 0.993 | 0.104 | 0.339 | 0.935 | -0.0013 |  |  |  |  |  |  | 
12 | CS(=O)(=O)CCNCc1ccc(-c2ccc3ncnc(Nc4ccc(OCc5cccc(F)c5)c(Cl)c4)c3c2)o1 [Lapatinib] + NC1(c2ccc(-c3nc4ccn5c(=O)[nH]nc5c4cc3-c3ccccc3)cc2)CCC1 [MK-2206] (first compound max 10 µM, 7x7, partner max 10 µM) | 0.554 | 0.431 | 0.868 | 0.721 | 1 | 0.912 | 0.911 | 0.635 | 0.0357 | 0.853 | 0.844 |  |  |  |  | 
13 | O=C(c1cc(Cc2n[nH]c(=O)c3ccccc23)ccc1F)N1CCN(C(=O)C2CC2)CC1 [Olaparib] + CC1(C)CCC(CN2CCN(c3ccc(C(=O)NS(=O)(=O)c4ccc(NCC5CCOCC5)c([N+](=O)[O-])c4)c(Oc4cnc5[nH]ccc5c4)c3)CC2)=C(c2ccc(Cl)cc2)C1 [Venetoclax] (first compound max 10 µM, 7x7, partner max 1 µM) | 0.143 | 0.174 | 0.169 | 0.147 | 0.297 | 0.305 | 0.383 | 0.145 | -0.0096 |  |  |  |  |  |  | 
14 | O=C(c1cc(Cc2n[nH]c(=O)c3ccccc23)ccc1F)N1CCN(C(=O)C2CC2)CC1 [Olaparib] + CN(CC[C@H](CSC1=CC=CC=C1)NC2=C(C=C(C=C2)S(=O)(=O)NC(=O)C3=CC=C(C=C3)N4CCC(CC4)[C@H](C5=CC=CC=C5C6=CC=C(C=C6)Cl)O)S(=O)(=O)C(F)(F)F)CCO [AZD4320] (first compound max 10 µM, 7x7, partner max 1 µM) | 0.182 | 0.112 | 0.951 | 0.153 | 0.389 | 0.403 | 0.689 | 0.253 | -0.043 |  |  |  |  |  |  | 
15 | O=C(c1cc(Cc2n[nH]c(=O)c3ccccc23)ccc1F)N1CCN(C(=O)C2CC2)CC1 [Olaparib] + Cc1c2c(nn1C)CSCc1cc(n(C)n1)CSc1cc(c3ccccc3c1)OCCCc1c(C(=O)O)n(C)c3c-2c(Cl)ccc13 [AZD5991] (first compound max 10 µM, 7x7, partner max 1 µM) | 0.165 | 0.107 | 0.149 | 0.128 | 0.281 | 0.989 | 0.531 | 0.0885 | -0.0467 |  |  |  |  |  |  | 
16 | CC(=O)c1c(C)c2cnc(Nc3ccc(N4CCNCC4)cn3)nc2n(C2CCCC2)c1=O [Palbociclib] + CN(CC[C@H](CSC1=CC=CC=C1)NC2=C(C=C(C=C2)S(=O)(=O)NC(=O)C3=CC=C(C=C3)N4CCC(CC4)[C@H](C5=CC=CC=C5C6=CC=C(C=C6)Cl)O)S(=O)(=O)C(F)(F)F)CCO [AZD4320] (first compound max 10 µM, 7x7, partner max 1 µM) |  |  |  |  |  |  |  | 0.209 |  | 0.251 | 0.994 | 0.772 | 0.8 | 0.793 | 1 | 0.561
17 | CC1(C)CCC(CN2CCN(c3ccc(C(=O)NS(=O)(=O)c4ccc(NCC5CCOCC5)c([N+](=O)[O-])c4)c(Oc4cnc5[nH]ccc5c4)c3)CC2)=C(c2ccc(Cl)cc2)C1 [Venetoclax] + CS(=O)(=O)CCNCc1ccc(-c2ccc3ncnc(Nc4ccc(OCc5cccc(F)c5)c(Cl)c4)c3c2)o1 [Lapatinib] (first compound max 1 µM, 7x7, partner max 10 µM) | 0.29 | 0.151 | 0.294 | 0.186 | 0.937 | 0.133 | 0.2 | 0.209 | -0.0206 |  |  |  |  |  |  | 
